Experimental data from patent US20250249014A1, “A COMBINATION FOR TREATING A RETINAL DISEASE” (HADASIT MEDICAL RESEARCH SERVICES AND DEVELOPMENT LTD., priority 2022, published 2025).
Structures can show the parent of a compound that is named as a salt. Where two headings read alike, the source gives them in different places.

Experiments:
[1] = system: Hypoxia-inducible factor 1-alpha (HIF-1α); test: Western blot of HIF-1α expression in HUVEC cells; type: cell-based, Human; conditions: 72 hours, combination Azeliragon 0.6 μM and EHop-016 1.3 μM
Experimental: Western blot—5×10^4 HUVEC cells were seeded in 10 cm dish in EGM™-2 medium for 24 hours. The cells were then treated with various dosages and combinations of SMI for 72 hours in addition to a control group treated with DMSO. Cells were lysed in WCE (whole-cell extraction) buffer [25 mM Hepes, pH 7.7, 0.3 M NaCl, 1.5 mM MgCl2, 0.2 mM EDTA, 0.1% Triton X-100, 0.5 mM DTT (dithiothreitol), 20 mM 2-glycerophosphate, 0.1 mM Na3VO4, 100 μg/ml PMSF and protease inhibitor cocktail (Sigma-Aldrich, 1:100 dilution)]. The proteins were then separated by SDS/PAGE (10% gel), followed by transfer on to a nitrocellulose membrane. Blots were blocked in 5% (w/v) non-fat dried skimmed milk powder in PBS and washed in PBS.

[2] = system: choroid explants; test: Choroid sprouting assay, ex-vivo; type: cell-based, C57BL/6J mice; conditions: 7 days; 0.55 μM Azeliragon, EHop-016 alone, 0.70 μM in combination; compared to untreated and DMSO
Experimental: Plates were then incubated for 10 minutes in 37° C., in a 5% CO2 cell culture incubator without medium to solidify the Matrigel™. […] Fresh medium and SMIs were replaced every two days and grown for 7 days (x3 time medium replaced).

[3] = system: HUVECs; test: Cell proliferation assay (WST-1) on HUVECs, with synergy analysis; type: cell-based, Human; conditions: for dose-proliferation inhibition relationship: increasing SMI concentration; for IC50: Homo sapiens, HUVEC; for IC50 / IC50 (inhibitory concentration of 50% cell growth compared to control) / % of Inhibition ± SD: HUVECs proliferation; for % of Inhibition ± SD: maximal attainable concentration of each SMI (28.421 μM, 17.85 μM, 20.99 μM); for effect of addition to the Azeliragon and EHop-016 combination on proliferation inhibition: CCR2-RA-[R] 22.74 μM
Experimental: Cell proliferation assay—The principle of cell proliferation assay is illustrated in FIG. 1. Briefly, HUVECS were seeded and maintained in EGM™-2 (Lonza Bioscience Solutions) medium for 24 hours. The cells were then treated with various dosages of SMI for designated time periods. Each experiment included a DMSO-treated control group. Tetrazolium salt was added according to the manufacturer's instructions and formation of formazan dye was quantified by measuring the absorbance at 440 nm using spectrophotometer. The formation of formazan dye is directly proportional to number of living cells.
Analysis of combined synergistic effect-Analysis of combined SMIs effect was determined from the results of the cell proliferation assay after 72 hours. SMIs synergy was determined by three synergy models. • 1. The Zero Interaction Potency (ZIP) model is a reference model for evaluating the effect of combination of two drugs by comparing the change in the potency of the dose-response curves between individual drugs and their combinations. A zip score higher than 10 is indicative of a synergistic combination, a zip score of between −10 and 10 is indicative of an additive combination and a zip score lower than −10 is indicative of an antagonistic combination. • 2. […] Values below 1 will represent synergism and above 1 antagonism.

[4] = system: HUVECs; test: Endothelial cell migration assay (scratch test); type: cell-based, Human; conditions: EHop-016 0.8 μM at 11 hours, CCR2-RA-[R] 5 μM at 13 hours
Experimental: Endothelial cell migration assay (scratch test)—5×10^4 cells/200 μl of HUVECs were cultured in 96 wells Incucyte® ImageLock 96-well microplates plates to near confluence in EGM™-2 medium for 24 hours. Afterwards, a homogeneous, 700-800-micron wide scratch wounds were created using Incucyte® WoundMaker. Different SMIs concentrations vs. DMSO (solvent) were added. Serial images for 26 hours of the migrating cells were obtained hourly using a live cell imaging system (Incucyte®).

[5] = system: choroidal neovascularization (CNV); test: Laser-Induced CNV model; type: in vivo, C57BL/6J mice; conditions: dosage calibration assays; EHop-016 30 μM, Aflibercept 41.27 μM
Experimental: Laser-Induced CNV Model—CNV was induced in C57BL/6J mice using argon green ophthalmic laser ([…], 50 μm, 0.1 sec) applied under fundoscopy to rupture Bruch's membrane. […] The injections were performed at the superotemporal sclera, where a perforating sclerotomy was made with 27-gauge (G) needle at approximately 1-2 mm from the limbus. Then, 1-2 μl of SMIs (solved in 5% Cremophor: 5% ethanol: 90% saline) vs. Sham were injected through the sclerotomy, under fundoscopy using 34 g microsyringe (Hamilton, Benfleet, UK).
Quantification of CNV—Eyes were enucleated, treated according to standard protocols. […] The flat mounts were then washed six times for 20 min each in PBS and mounted on a slide using mounting medium. The area of CNV surrounding each laser injury was measured using ImageJ software.

[6] = system: VEGF; conditions: diabetic macular edema patients; cited from earlier work
Sequence of VEGF (P15692 207-311 limits assumed): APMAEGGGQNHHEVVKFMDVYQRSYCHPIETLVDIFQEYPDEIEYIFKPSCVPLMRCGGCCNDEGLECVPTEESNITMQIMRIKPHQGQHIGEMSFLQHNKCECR

[7] = HUVECs, single 72-hour treatment
[8] = single 72-hour treatment, read-out: IC50 (inhibitory concentration of 50% cell growth compared to control)

CCn1c2ccccc2c2cc(Nc3ccnc(NCCCN4CCOCC4)n3)ccc21 [EHop-016, N4-(9-Ethyl-9H-carbazol-3-yl)-N2-[3-(4-morpholinyl)propyl]-2,4-pyrimidinediamine]
HIF-1α expression [1]: inhibited expression | area of the sprouting vessels [2]: inhibited the area of the sprouting vessels | dependence of proliferation inhibition on the initial number of cells ([3]; HUVECs at 3×10^3 and 1×10^3 cells/well): independent from the initial number of cells | decrease of IC50 by daily dosing in comparison with IC50 of SD regimen ([3]; HUVECs, 72 hours): more than a half | dose-proliferation inhibition relationship [3, 7]: linear inhibition of proliferation | IC50 ([3]; daily dosing, 72 hours, read-out: IC50 following daily dosing regimen): 1.24 µM | IC50 [3, 8]: 2.31 µM | inhibition of HUVECs migration [4]: strongest migration inhibitor | CNV area [5]: comparable to the dramatic effect received from Aflibercept injection

Cc1ccc(NC(=O)c2cccc(OCc3c(C)noc3C)c2)cc1S(N)(=O)=O (racemic) [Z62954982, 3-((3,5-Dimethylisoxazol-4-yl)methoxy)-N-(4-methyl-3-sulfamoyl-phenyl)benzamide]
IC50 (inhibitory concentration of 50% cell growth compared to control) ([3]; single 72-hour treatment): No effect | inhibitory effect with longer incubation time ([3]; HUVECs, treatment time extended to 120 hours compared to 72-hour incubation): did not improve the inhibitory effect

Aflibercept: Aflibercept (Eylea®), comparator injection in Laser-induced CNV model
CNV area [5]: dramatic effect

CC(=O)C1=C(O)C(=O)N(c2ccc(Cl)cc2F)[C@@H]1C1CCCCC1 [CCR2-RA-[R], (R)-4-Acetyl-1-(4-chloro-2-fluorophenyl)-5-cyclohexyl-3-hydroxy-1,5-dihydro-2H-pyrrol-2-one]
inhibition of HUVECs proliferation (summary in words) [3]: did not show significant inhibition | % of Inhibition ± SD [3]: 33.4 ± 4.30% | effect of addition to the Azeliragon and EHop-016 combination on proliferation inhibition ([3]; HUVECs, 24-hour treatment): significantly augmented the proliferation inhibition effect | effect of addition to the Azeliragon and EHop-016 combination on proliferation inhibition ([3]; HUVECs, 48- and 72-hour treatment): not | inhibition of HUVECs migration [4]: strongly inhibited cell migration

O=C(NCC(=O)N1CC[C@H](NC2CCC(O)(c3ccc(-c4ncccn4)cn3)CC2)C1)c1cccc(C(F)(F)F)c1 (stereo partly drawn) [PF-4136309, N-[2-[(3S)-3-[[4-hydroxy-4-(5-pyrimidin-2-ylpyridin-2-yl)cyclohexyl]amino]pyrrolidin-1-yl]-2-oxoethyl]-3-(trifluoromethyl)benzamide]
% of Inhibition ± SD [3]: 25.7 ± 7.68%

O=C(c1ccc(Cl)cc1)N(Cc1ccccc1)C1CCCCC1 [FPS-ZM1, 4-Chloro-N-cyclohexyl-N-(phenylmethyl)benzamide]
dose-proliferation inhibition relationship [3, 7]: linear inhibition of proliferation | IC50 [3, 8]: 30 µM

O=C(CNC(=O)c1cccc(C(F)(F)F)c1)N[C@@H]1CCN(Cc2ccc(Cl)cc2)C1 [CCR2 antagonist 4 hydrochloride, N-[2-[[(3R)-1-[(4-chlorophenyl)methyl]-3-pyrrolidinyl]amino]-2-oxoethyl]-3-(trifluoromethyl)benzamidehydrochloride]
% of Inhibition ± SD [3]: 13.8 ± 8.07%

COc1ccc(/C=C/c2cc(O)cc(O)c2)cc1 [4′-Methoxyresveratrol, 5-[(E)-2-(4-Methoxyphenyl)ethen-1-yl]benzene-1,3-diol]
dose-proliferation inhibition relationship [3, 7]: linear inhibition of proliferation | IC50 [3, 8]: 64 µM

CCN(CC)CCCC(C)Nc1nc(C)cc(Nc2ccc3nc(C)cc(N)c3c2)n1.Cl.Cl.Cl (stereo not shown) [NSC 23766 trihydrochloride, N6-[2-(4-Diethylamino-1-methyl-butylamino)-6-methyl-pyrimidin-4-yl]-2-methyl-quinoline-4,6-diamine trihydrochloride]
IC50 (inhibitory concentration of 50% cell growth compared to control) ([3]; single 72-hour treatment): No effect

B1: Ranibizumab: a monoclonal antibody that inhibits VEGF (antibody, chains of the INN, looked up, V domains shown)
VH: EVQLVESGGGLVQPGGSLRLSCAASGYDFTHYGMNWVRQAPGKGLEWVGWINTYTGEPTYAADFKRRFTFSLDTSKSTAYLQMNSLRAEDTAVYYCAKYPYYYGTSHWYFDVWGQGTLVTVSS
VL: DIQLTQSPSSLSASVGDRVTITCSASQDISNYLNWYQQKPGKAPKVLIYFTSSLHSGVPSRFSGSGSGTDFTLTISSLQPEDFATYYCQQYSTVPWTFGQGTKVEIK
clinical outcome (vision, macular edema) [6]: rapidly and sustainably improved vision
